Here are results for 26 molecules from patent US20240101570A1 (AMGEN INC., priority 2020, published 2024).

The subject of one experiment is HCT116 MTAP null cells. The experiment can be described thus: HCT116 MTAP null cell proliferation / viability (CellTiter-Glo, 6 days). Type of experiment: cell-based. Particulars: HCT116-MTAP null, 144 h, HCT116 MTAP null cells, 6 days, CellTiter-Glo; read-out: HCT-116 MTAP null IC50. In short, it runs like this: (§1)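 IC50 values derive from sigmoidal dose-response fits, some with Hill slope fixed at −1 and top constrained to 100%, others from 4-parameter logistic models. They reflect CellTiter-Glo viability after 6 days of compound exposure at up to 10 or 50 μM.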

A further experiment concerns HCT116 WT cells. Put plainly: HCT116 WT cell proliferation / viability (CellTiter-Glo, 6 days). The following applies: Homo sapiens, HCT-116, 144 h, HCT116 WT cells, 6 days, CellTiter-Glo; read-out: HCT-116 WT IC50. Type of experiment: cell-based. In short, it runs like this:
as §1

One may read the IC50 as the concentration that inhibits the measured activity by half. Take `C[C@H]1OCc2c1c(N)nc1cnc(C(=O)N(Cc3ccc(C#N)cn3)C3CC3)cc21` [Example 316, (3R)-4-amino-N-((5-cyano-2-pyridinyl)methyl)-N-cyclopropyl-3-methyl-1,3-dihydrofuro[3,4-c][1,7]naphthyridine-8-carboxamide]: the concentration for half-maximal inhibition (IC50) in the experiment on HCT116 MTAP null cells was 570 nM; with HCT116 WT cells, 23600 nM.
The corresponding values for `Nc1nc2cnc(C(=O)N(Cc3ccc(C(F)(F)F)nn3)C3CCC3)cc2c2c1COC2` [Example 721, 4-amino-N-cyclobutyl-N-((6-(trifluoromethyl)-3-pyridazinyl)methyl)-1,3-dihydrofuro[3,4-c][1,7]naphthyridine-8-carboxamide] are 209 nM and 9410 nM.
On to `CCOc1ccc(CN(C(=O)c2ccc3nc(N)c4c(c3c2)COC4)C23CC(C2)C3)nn1` [Example 387, 4-amino-N-(bicyclo[1.1.1]pentan-1-yl)-N-((6-ethoxy-3-pyridazinyl)methyl)-1,3-dihydrofuro[3,4-c]quinoline-8-carboxamide], for which the half-inhibitory concentration (IC50) came to 175 nM in the experiment on HCT116 MTAP null cells and 4040 nM in the experiment with HCT116 WT cells.
On the same counts, the results for `CC(C)N(Cc1ccc(C(F)(F)F)cn1)C(=O)c1cc2c3c(c(N)nc2cn1)COC3` [Example 675, 4-amino-N-(2-propanyl)-N-((5-(trifluoromethyl)-2-pyridinyl)methyl)-1,3-dihydrofuro[3,4-c][1,7]naphthyridine-8-carboxamide] are 66 nM and 12700 nM.
With `Nc1nc2cnc(C(=O)N(Cc3ccc(C(F)(F)F)nn3)CC3CC3)cc2c2c1COC2` [Example 688, 4-amino-N-(cyclopropylmethyl)-N-((6-(trifluoromethyl)-3-pyridazinyl)methyl)-1,3-dihydrofuro[3,4-c][1,7]naphthyridine-8-carboxamide], the values for the half-inhibitory concentration (IC50) with HCT116 MTAP null cells and in the experiment on HCT116 WT cells were 81 nM and 3440 nM, respectively.
The corresponding values for `CCN(Cc1ccc(S(F)(F)(F)(F)F)cc1)C(=O)c1cc2c(cn1)nc(N)c1cnn(C)c12` [Example 565, 4-amino-N-ethyl-1-methyl-N-(4-(pentafluoro-lambda~6~- sulfanyl)benzyl)-1H-pyrazolo[4,3-c][1,7]naphthyridine-8-carboxamide] are 19 nM and 653 nM.
For the molecule `CCN(Cc1ccc(C(F)(F)F)cn1)C(=O)c1cc2c(cc1F)nc(N)c1c2cnn1C` [Example 427, 4-amino-N-ethyl-7-fluoro-3-methyl-N-((5-(trifluoromethyl)-2-pyridinyl)methyl)-3H-pyrazolo[3,4-c]quinoline-8-carboxamide], the figures for the IC50 in the experiment with HCT116 MTAP null cells and in the experiment on HCT116 WT cells were 44 nM and 1680 nM, respectively.
On the same counts, the results for `C[C@H](c1ncc(C(F)(F)F)cc1F)N(C)C(=O)c1cc2c(cn1)nc(N)c1c2cnn1C` (single isomer, unassigned) [Example 861] are 205 nM and 13600 nM.
On the same counts, the results for `CCN(C(=O)c1ccc2nc(N)c3c(c2c1)COC3)[C@H](c1ccc(C(F)(F)F)cn1)C1CC1` [Example 748, 4-amino-N-((S)-cyclopropyl(5-(trifluoromethyl)-2-pyridinyl)methyl)-N-ethyl-1,3-dihydrofuro[3,4-c]quinoline-8-carboxamide] are 5350 nM and 36400 nM.
Take `C[C@H](c1ccc(C(F)(F)F)nn1)N(C(=O)c1cc2c3c(c(N)nc2cc1Cl)COC3)C1CCC1` [Example 744, 4-amino-7-chloro-N-cyclobutyl-N-((1R)-1-(6-(trifluoromethyl)-3-pyridazinyl)ethyl)-1,3-dihydrofuro[3,4-c]quinoline-8-carboxamide]: the IC50 in the experiment on HCT116 MTAP null cells turned out to be 38 nM; with HCT116 WT cells it was 967 nM.
`CCN(C(=O)c1ccc2nc(N)c3c(c2c1)CO[C@@H]3C)[C@H](C)c1ccc(C(F)(F)F)nn1` [Example 778, (3R)-4-amino-N-ethyl-3-methyl-N-((1R)-1-(6-(trifluoromethyl)-3-pyridazinyl)ethyl)-1,3-dihydrofuro[3,4-c]quinoline-8-carboxamide]: the IC50 came to 49 nM in the experiment with HCT116 MTAP null cells and 2660 nM in the experiment on HCT116 WT cells.
The corresponding values for `CCN(Cc1ccc(C(F)(F)F)nn1)C(=O)c1ccc2nc(N)c3c(c2c1)COC3` [Example 695, 4-amino-N-ethyl-N-((6-(trifluoromethyl)-3-pyridazinyl)methyl)-1,3-dihydrofuro[3,4-c]quinoline-8-carboxamide] are 210 nM and 4990 nM.
The corresponding values for `CCOc1ccc(CN(CC2CC2)C(=O)c2cc3c4c(c(N)nc3cc2F)COC4)nn1` [Example 752, 4-amino-N-(cyclopropylmethyl)-N-((6-ethoxy-3-pyridazinyl)methyl)-7-fluoro-1,3-dihydrofuro[3,4-c]quinoline-8-carboxamide] are 33 nM and 771 nM.
On the same counts, the results for `CCOc1ccc(CN(C(=O)c2ccc3nc(N)c4c(cnn4C)c3c2)[C@H](C)c2ncccn2)nn1` [Example 758, 4-amino-N-((6-ethoxy-3-pyridazinyl)methyl)-3-methyl-N-((1R)-1-(2-pyrimidinyl)ethyl)-3H-pyrazolo[3,4-c]quinoline-8-carboxamide] are 37 nM and 658 nM.
As to `CC(C)N(Cc1ccc(C(F)(F)F)cn1)C(=O)c1cc2c3c(c(N)nc2cc1F)COC3` [Example 345, 4-amino-7-fluoro-N-(2-propanyl)-N-((5-(trifluoromethyl)-2-pyridinyl)methyl)-1,3-dihydrofuro[3,4-c]quinoline-8-carboxamide], the IC50 in the experiment on HCT116 MTAP null cells was 11 nM; in the experiment on HCT116 WT cells, 210 nM.
On the same counts, the results for `Cn1cc(N(Cc2ccc(C(F)(F)F)cn2)C(=O)c2ccc3nc(N)c4cnn(C)c4c3c2)cn1` [Example 757, 4-amino-1-methyl-N-(1-methyl-1H-pyrazol-4-yl)-N-((5-(trifluoromethyl)-2-pyridinyl)methyl)-1H-pyrazolo[4,3-c]quinoline-8-carboxamide] are 26 nM and 1320 nM.
The corresponding values for `CCN(C(=O)c1cc2c3c(c(N)nc2cc1F)COC3)[C@H](C)c1ccc(C(F)(F)F)nn1` [Example 781, 4-amino-N-ethyl-7-fluoro-N-((1R)-1-(6-(trifluoromethyl)-3-pyridazinyl)ethyl)-1,3-dihydrofuro[3,4-c]quinoline-8-carboxamide] are 37 nM and 1310 nM.
On the same counts, the results for `CO[C@@H]1COCC[C@H]1N(Cc1ccc(C(F)(F)F)cn1)C(=O)c1ccc2nc(N)c3c(c2c1)COC3` (single isomer, unassigned) [Example 584] are 14 nM and 164 nM.
Regarding `CC(C)N(Cc1ccc(C#N)cn1)C(=O)c1cc2c3c(c(N)nc2cn1)[C@@H](C)OC3` [Example 404, (3R)-4-amino-N-((5-cyano-2-pyridinyl)methyl)-3-methyl-N-(2-propanyl)-1,3-dihydrofuro[3,4-c][1,7]naphthyridine-8-carboxamide], the half-maximal inhibitory concentration (IC50) with HCT116 MTAP null cells turned out to be 180 nM; in the experiment with HCT116 WT cells, 11400 nM.
On the same counts, the results for `Nc1nc2cnc(C(=O)N(Cc3ccc(C(F)(F)F)cc3)C3CC3)cc2c2c1COC2` [Example 734, 4-amino-N-cyclopropyl-N-(4-(trifluoromethyl)benzyl)-1,3-dihydrofuro[3,4-c][1,7]naphthyridine-8-carboxamide] are 383 nM and 14400 nM.
The corresponding values for `C[C@H]1OCc2c1c(N)nc1cnc(C(=O)N(Cc3ccc(C(F)(F)F)cn3)C3CC3)cc21` [Example 315, (3R)-4-amino-N-cyclopropyl-3-methyl-N-((5-(trifluoromethyl)-2-pyridinyl)methyl)-1,3-dihydrofuro[3,4-c][1,7]naphthyridine-8-carboxamide] are 137 nM and 11100 nM.
The corresponding values for `C[C@H](c1ncccn1)N(Cc1ccc(C#N)cn1)C(=O)c1cc2c3c(c(N)nc2cc1F)COC3` [Example 436, 4-amino-N-((5-cyano-2-pyridinyl)methyl)-7-fluoro-N-((1R)-1-(2-pyrimidinyl)ethyl)-1,3-dihydrofuro[3,4-c]quinoline-8-carboxamide] are 29 nM and 187 nM.
For the molecule `COCC(C)N(Cc1ccc(C(F)(F)F)cn1)C(=O)c1ccc2nc(N)c3c(C)noc3c2c1` (racemic) [Example 634, 4-amino-N-((2R)-1-methoxy-2-propanyl)-3-methyl-N-((5-(trifluoromethyl)-2-pyridinyl)methyl)[1,2]oxazolo[4,5-c]quinoline-8-carboxamide and 4-amino-N-((2S)-1-methoxy-2-propanyl)-3-methyl-N-((5-(trifluoromethyl)-2-pyridinyl)methyl)[1,2]oxazolo[4,5-c]quinoline-8-carboxamide], the IC50 with HCT116 MTAP null cells was determined as 34 nM; in the experiment with HCT116 WT cells it was 953 nM.
On the same counts, the results for `C[C@H](c1ccc(C(F)(F)F)cn1)N(C(=O)c1cc2c(cc1F)nc(N)c1c2cnn1C)C1CC1` [Example 508, 4-amino-N-cyclopropyl-7-fluoro-3-methyl-N-((1R)-1-(5-(trifluoromethyl)-2-pyridinyl)ethyl)-3H-pyrazolo[3,4-c]quinoline-8-carboxamide] are 60 nM and 2840 nM.
The corresponding values for `Nc1nc2cc(F)c(C(=O)N(Cc3ccc(C(F)(F)F)cn3)C3CC3)cc2c2c1COC2` [Example 369, 4-amino-N-cyclopropyl-7-fluoro-N-((5-(trifluoromethyl)-2-pyridinyl)methyl)-1,3-dihydrofuro[3,4-c]quinoline-8-carboxamide] are 124 nM and 5040 nM.
On the same counts, the results for `Nc1nc2cc(Cl)c(C(=O)N(Cc3ccc(C(F)(F)F)cn3)C3CC3)cc2c2c1COC2` [Example 656, 4-amino-7-chloro-N-cyclopropyl-N-((5-(trifluoromethyl)-2-pyridinyl)methyl)-1,3-dihydrofuro[3,4-c]quinoline-8-carboxamide] are 19 nM and 1260 nM.
